PubChem BioAssay AID248 (DTP/NCI, 2004)
Several values for one entry are separate records, joined by “and”; a condition that tells them apart may be missing. Equal entries are not always repeated. Inconclusive results and toxic doses are left out. Cut-off read from the data, not from the text of the source: active = T/C of 150% or more; inactive = T/C below 125%.

System: L1210 leukemia ip in BDF1 mice, survival T/C
Assay: NCI In Vivo Anticancer Drug Screen. Data for tumor model L1210 Leukemia (intraperitoneal) in B6D2F1 (BDF1) mice
Settings: endpoint: mean survival time, higher = longer survival
Summary of the method: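 Survival endpoint. Drug-treated group vs vehicle group, expressed as T divided by C. Tumor passaged by transplantation.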

[1] = dose: 100.0 mg/kg/injection, schedule: Q01DX001 (ip), vehicle: Klucel (hydroxypropylcellulose) (HPC)
[2] = dose: 100.0 mg/kg/injection, schedule: Q01DX005 (ip), vehicle: saline
[3] = dose: 100.0 mg/kg/injection, schedule: Q01DX009 (ip), vehicle: saline
[4] = dose: 100.0 mg/kg/injection, schedule: Q04DX003 (ip), vehicle: saline with Tween-80
[5] = dose: 200.0 mg/kg/injection, schedule: Q01DX005 (ip), vehicle: saline
[6] = dose: 200.0 mg/kg/injection, schedule: Q01DX009 (ip), vehicle: saline
[7] = dose: 200.0 mg/kg/injection, schedule: Q04DX003 (ip), vehicle: saline with Tween-80
[8] = dose: 400.0 mg/kg/injection, schedule: Q04DX003 (ip), vehicle: saline with Tween-80
[9] = dose: 100.0 mg/kg/injection, schedule: Q01DX001 (ip), vehicle: saline
[10] = dose: 200.0 mg/kg/injection, schedule: Q01DX001 (ip), vehicle: saline
[11] = dose: 400.0 mg/kg/injection, schedule: Q01DX001 (ip), vehicle: saline
[12] = dose: 100.0 mg/kg/injection, schedule: Q01DX009 (ip), vehicle: Klucel (hydroxypropylcellulose) (HPC)
[13] = dose: 100.0 mg/kg/injection, schedule: Q04DX003 (ip), vehicle: Klucel (hydroxypropylcellulose) (HPC)
[14] = dose: 200.0 mg/kg/injection, schedule: Q01DX009 (ip), vehicle: Klucel (hydroxypropylcellulose) (HPC)
[15] = dose: 200.0 mg/kg/injection, schedule: Q04DX003 (ip), vehicle: Klucel (hydroxypropylcellulose) (HPC)
[16] = dose: 400.0 mg/kg/injection, schedule: Q01DX009 (ip), vehicle: Klucel (hydroxypropylcellulose) (HPC)
[17] = dose: 400.0 mg/kg/injection, schedule: Q04DX003 (ip), vehicle: Klucel (hydroxypropylcellulose) (HPC)
[18] = dose: 100.0 mg/kg/injection, schedule: Q01DX001 (ip), vehicle: carboxymethylcellulose (CMC)
[19] = dose: 200.0 mg/kg/injection, schedule: Q01DX001 (ip), vehicle: carboxymethylcellulose (CMC)
[20] = dose: 400.0 mg/kg/injection, schedule: Q01DX001 (ip), vehicle: carboxymethylcellulose (CMC)

Measured: T/C

Nc1ccc(S(=O)(=O)NCc2nccs2)cc1
inactive: dose: 5.0 mg/kg/injection, schedule: Q01DX001 (ip), vehicle: saline 102 % of control | dose: 10.0 mg/kg/injection, schedule: Q01DX001 (ip), vehicle: saline 100 % of control | dose: 20.0 mg/kg/injection, schedule: Q01DX001 (ip), vehicle: saline 100 % of control | dose: 40.0 mg/kg/injection, schedule: Q01DX001 (ip), vehicle: saline 102 % of control | dose: 80.0 mg/kg/injection, schedule: Q01DX001 (ip), vehicle: saline 100 % of control

CS(=O)(=O)c1nc2[nH]c(=O)[nH]c(=O)c2cc1C#N
inactive: dose: 25.0 mg/kg/injection, schedule: Q01DX001 (ip), vehicle: Klucel (hydroxypropylcellulose) (HPC) 93 % of control | dose: 50.0 mg/kg/injection, schedule: Q01DX001 (ip), vehicle: Klucel (hydroxypropylcellulose) (HPC) 98 % of control | [1] 97 % of control

O=C(O)C1CC=CCC1C(=O)O (stereo not drawn)
inactive: [2] 95 % of control | [3] 108 % of control | [4] 97 % of control | dose: 100.0 mg/kg/injection, schedule: Q04DX003 (ip), vehicle: saline 94 % of control | [5] 98 % of control | [6] 118 % of control | [7] 95 % of control | dose: 200.0 mg/kg/injection, schedule: Q04DX003 (ip), vehicle: saline 91 % of control | dose: 400.0 mg/kg/injection, schedule: Q01DX005 (ip), vehicle: saline 92 % of control | [8] 91 % of control | dose: 400.0 mg/kg/injection, schedule: Q04DX003 (ip), vehicle: saline 99 % of control

CC(=O)NS(=O)(=O)c1cc(N)ccc1S(=O)(=O)c1ccc(N)cc1
inactive: [9] 94 % of control | [10] 92 % of control | [11] 92 % of control

O=[N+]([O-])c1ccc(S(=O)c2ccc([N+](=O)[O-])cc2)cc1
inactive: [12] 108 % of control | [13] 98 % of control | [14] 95 % of control | [15] 98 % of control | [16] 101 % of control | [17] 93 % of control

O=C(O)c1ccccc1NCc1cc(=O)[nH]c(=O)[nH]1
inactive: [4] 101 % of control | [7] 98 % of control | [8] 95 % of control

O=C(N/N=C/c1ccc(Cl)cc1Cl)c1cccc([N+](=O)[O-])c1
inactive: [12] 100 % of control | [14] 100 % of control | [16] 94 % of control

CCCCC(=O)N1CC(C)OC(C)C1 (stereo not drawn)
inactive: [18] 97 % of control | dose: 100.0 mg/kg/injection, schedule: Q01DX009 (ip), vehicle: carboxymethylcellulose (CMC) 96 % of control | dose: 100.0 mg/kg/injection, schedule: Q04DX002 (ip), vehicle: carboxymethylcellulose (CMC) 102 % of control | dose: 100.0 mg/kg/injection, schedule: Q04DX003 (ip), vehicle: carboxymethylcellulose (CMC) 102 % of control | [19] 102 % of control | dose: 200.0 mg/kg/injection, schedule: Q01DX009 (ip), vehicle: carboxymethylcellulose (CMC) 94 % of control and 104 % of control | dose: 200.0 mg/kg/injection, schedule: Q04DX002 (ip), vehicle: carboxymethylcellulose (CMC) 98 % of control | dose: 200.0 mg/kg/injection, schedule: Q04DX003 (ip), vehicle: carboxymethylcellulose (CMC) 102 % of control | [20] 106 % of control | dose: 400.0 mg/kg/injection, schedule: Q01DX009 (ip), vehicle: carboxymethylcellulose (CMC) 94 % of control and 98 % of control | dose: 400.0 mg/kg/injection, schedule: Q04DX002 (ip), vehicle: carboxymethylcellulose (CMC) 105 % of control | dose: 400.0 mg/kg/injection, schedule: Q04DX003 (ip), vehicle: carboxymethylcellulose (CMC) 96 % of control

NC(Cc1cccs1)C(=O)O (stereo not drawn)
inactive: [18] 96 % of control | dose: 100.0 mg/kg/injection, schedule: Q01DX009 (ip), vehicle: saline with Tween-80 101 % of control | [4] 99 % of control | [19] 101 % of control | dose: 200.0 mg/kg/injection, schedule: Q01DX009 (ip), vehicle: saline with Tween-80 104 % of control | [7] 99 % of control | dose: 250.0 mg/kg/injection, schedule: Q01DX Z (ip), vehicle: carboxymethylcellulose (CMC) 89 % of control | [20] 101 % of control | dose: 400.0 mg/kg/injection, schedule: Q01DX009 (ip), vehicle: saline with Tween-80 97 % of control | [8] 96 % of control | dose: 1000.0 mg/kg/injection, schedule: Q01DX Z (ip), vehicle: carboxymethylcellulose (CMC) 92 % of control

C[n+]1cccc2cccc(N)c21
inactive: dose: 10.0 mg/kg/injection, schedule: Q01DX001 (ip), vehicle: other 105 % of control | dose: 20.0 mg/kg/injection, schedule: Q01DX001 (ip), vehicle: other 115 % of control | dose: 40.0 mg/kg/injection, schedule: Q01DX001 (ip), vehicle: other 105 % of control

Cc1cc(NCC(O)C(O)C(O)CO)c(C(=O)NN)cc1C (stereo not drawn)
inactive: [9] 101 % of control | [10] 96 % of control | [11] 95 % of control

CCOc1ccc(C2CCCCCC2OS(C)(=O)=O)cc1 (stereo not drawn)
inactive: [1] 105 % of control | [12] 95 % of control | [13] 97 % of control | dose: 200.0 mg/kg/injection, schedule: Q01DX001 (ip), vehicle: Klucel (hydroxypropylcellulose) (HPC) 96 % of control | [14] 98 % of control | [15] 103 % of control | dose: 400.0 mg/kg/injection, schedule: Q01DX001 (ip), vehicle: Klucel (hydroxypropylcellulose) (HPC) 100 % of control | [16] 93 % of control | [17] 101 % of control

CC1(C)OC2C(COC(=O)Oc3ccccc3)OC(n3cnc4c(=O)[nH]c(N)nc43)C2O1 (stereo not drawn)
inactive: [2] 106 % of control | [5] 97 % of control

CC(=O)C1CCC2C3CCC4CC(O)CCC4(C)C3CCC12C#N (stereo not drawn)
inactive: dose: 100.0 mg/kg/injection, schedule: Q01DX009 (sc), vehicle: steriod suspending solution 101 % of control | dose: 100.0 mg/kg/injection, schedule: Q04DX003 (sc), vehicle: steriod suspending solution 93 % of control | dose: 200.0 mg/kg/injection, schedule: Q01DX009 (sc), vehicle: steriod suspending solution 108 % of control | dose: 200.0 mg/kg/injection, schedule: Q04DX003 (sc), vehicle: steriod suspending solution 102 % of control | dose: 400.0 mg/kg/injection, schedule: Q01DX009 (sc), vehicle: steriod suspending solution 108 % of control | dose: 400.0 mg/kg/injection, schedule: Q04DX003 (sc), vehicle: steriod suspending solution 104 % of control

O=C(O)C(O)C(O)C(=O)O (stereo not drawn)
inactive: [3] 106 % of control | [6] 104 % of control | dose: 400.0 mg/kg/injection, schedule: Q01DX009 (ip), vehicle: saline 102 % of control
